Test results as given in patent US4621083A, “PAF-antagonistic diazepines” (Boehringer Ingelheim KG, priority 1984, dated 1986).

Tested on: PAF-induced aggregation of human thrombocytes
Assay: Inhibition of PAF-induced blood platelet aggregation in vitro
Assay type: cell-based
Conditions: Homo sapiens, read-out: PAF-Antag. IC50
Experimental: 1. Inhibition of blood platelet aggregation in vitro
The PAF-induced aggregation of human thrombocytes in vitro is used to determine PAF-antagonistic activity. To obtain thrombocyte-rich plasma (TRP), blood is taken from an uncongested vein using a plastic syringe containing 3.8% sodium citrate solution. The ratio of sodium citrate solution to blood is 1:9. After careful mixing the citrate blood is centrifuged for 20 minutes at 150 g (1200 rpm). The thrombocyte aggregation is measured using the method devised by Born and Cross (G. V. R. Born and M. J. Cross, J. Physiol. 168, 178 (1963)), by adding an aggregation initiator (PAF) to the TRP with constant stirring.
The test substance is added 2 to 3 minutes before aggregation is initiated in a volume of 10 ul. Either distilled water, ethanol and/or dimethylsulphoxide (each in suitable concentrations) can be used as solvent.
Control mixtures contain corresponding volumes of these solvents. After the initial absorption has been recorded (2 to 3 minutes) aggregation is induced with PAF (5×10^-8 M).
The maximum of the first aggregation wave is used to assess the effects of the substance. The PAF-induced maximum absorption rate (=maximum aggregation×100%) is tested at the same time in a parallel mixture (=control mixture in one of the channels of the two-channel aggregometer) as each test mixture (second channel) and is used as a 100% value.
The aggregation value attained under the effect of the test substance is given as a percentage of the control value, i.e. less than 100% in the case of an inhibition of aggregation and over 100% in the case of an increase.
Each test substance is investigated at concentrations of from 10^-3 to 10^-8 M with a random sampling of n=4 with regard to an inhibitory effect on the PAF-induced thrombocyte aggregation. Then a concentration-activity curve is drawn up using 3 concentrations and the IC50 is determined (concentration giving a 50% inhibition of aggregation).

Compound	IC50
Cc1nnc2n1-c1sc3c(c1C(c1ccccc1Cl)=NC2)CCOC3 [compound 44]	< 5 µM
Cc1nnc2n1-c1cc(Cl)ccc1C(c1ccccc1Cl)=NC2 [compound 5]	300 µM
Clc1ccc2c(c1)C(c1ccccc1Cl)=NCc1nnc(Br)n1-2 [compound 57]	25 µM
Cc1nnc2n1-c1ccc([N+](=O)[O-])cc1C(c1ccccc1Cl)=NC2 [compound 62]	10 µM
Cc1nnc2n1-c1sc(C#N)cc1C(c1ccccc1Cl)=NC2 [compound 58]	3.8 µM
Clc1ccccc1C1NCc2nncn2-c2sc(Br)cc21 (stereo not drawn) [compound 92]	140 µM
Cc1nnc2n1-c1c(nnn1C)C(c1ccccc1Cl)=NC2 [compound 29]	950 µM
Clc1ccc2c(c1)C(c1ccccc1)=NCc1nnc(Br)n1-2 [compound 55]	119 µM
CCOC(=O)c1ncc2n1-c1ccc(Cl)cc1C(c1ccccc1F)=NC2 [compound 70]	730 µM
CC(C)(O)c1ccc2c(c1)C(c1ccccc1)=NCc1nncn1-2 [compound 81]	103 µM
Cc1nnc2n1-c1ccccc1C(c1ccccc1Cl)=NC2 [compound 2]	8.6 µM
Cc1nnc2n1-c1ccc(Cl)cc1C(c1ccccc1)=NC2 [compound 3, Alprazolam, reference compound]	14 µM
CC(=CC(=O)O)c1cc2c(s1)-n1c(C)nnc1CN=C2c1ccccc1Cl [compound 59]	> 50 µM
Cc1nnc2n1-c1c(Cl)cccc1C(c1ccccc1Cl)=NC2 [compound 71]	300 µM
CCc1cc2c(s1)-n1c(C)nnc1CNC2c1ccccc1Cl (stereo not drawn) [compound 90]	< 5 µM
Cc1nnc2n1-c1sc(CC(=O)O)cc1C(c1ccccc1Cl)=NC2 [compound 76]	> 100 µM
Cc1nnc2n1-c1cc(Cl)ccc1C(c1ccccc1Cl)NC2 (stereo not drawn) [compound 87]	190 µM
Cc1nnc2n1-c1sc(Cl)cc1C(c1ccccc1Cl)NC2 (stereo not drawn) [compound 88]	< 5 µM
Cc1nnc2n1-c1ccccc1C(c1ccccc1Cl)NC2 (stereo not drawn) [compound 85]	8.7 µM
CCOC(=O)c1ccn2c1CN=C(c1ccccc1Cl)c1cc(Cl)ccc1-2 [compound 60]	444 µM
Cc1nnc2n1-c1sc(Cl)cc1C(c1ccccc1Cl)=NC2 [compound 9]	< 2 µM
COc1ccc2c(c1)C(c1ccccc1Cl)=NCc1nnc(C)n1-2 [compound 43]	33.3 µM
Clc1ccc2c(c1)C(c1ccccc1Cl)=NCc1cncn1-2 [compound 61]	246 µM
COc1ccc2c(c1)C(c1ccccc1Cl)NCc1nnc(C)n1-2 (stereo not drawn) [compound 100]	< 50 µM
Clc1ccccc1C1=NCc2cncn2-c2sccc21 [compound 50]	87 µM
Clc1ccc2c(c1)C(c1ccccc1Cl)=NCc1nncn1-2 [compound 54]	115 µM

Compound	IC50
Fc1ccccc1C1=NCc2cncn2-c2ccc(Cl)cc21 [compound 69]	580 µM
Cc1nnc2n1-c1ccc(Cl)cc1C(c1ccccc1Cl)NC2 (stereo not drawn) [compound 86]	8.3 µM
CCOC(=O)c1ncn2c1CN=C(c1ccccc1Cl)c1ccsc1-2 [compound 49]	210 µM
CC(=O)c1ccc2c(c1)C(c1ccccc1)=NCc1nnc(C)n1-2 [compound 82]	63 µM
Cc1nnc2n1-c1ccc(Cl)cc1C(c1ccccc1Cl)=NC2 [compound 4, Triazolam, reference compound]	9 µM
Cc1nnc2n1-c1sc(C(C)O)cc1C(c1ccccc1Cl)=NC2 (stereo not drawn) [compound 77]	< 10 µM
CSCc1cc2c(s1)-n1c(C)nnc1CN=C2c1ccccc1Cl [compound 11]	< 5 µM
Cc1nnc2n1-c1sc(C(=O)O)cc1C(c1ccccc1Cl)=NC2 [compound 67]	> 100 µM
Cc1nnc2n1-c1ccc(C#N)cc1C(c1ccccc1Cl)=NC2 [compound 75]	< 20 µM
Cc1ccc2c(c1)C(c1ccccc1Cl)NCc1nnc(C)n1-2 (stereo not drawn) [compound 102]	< 5 µM
Cc1cc2c(cc1C)-n1c(C)nnc1CN=C2c1ccccc1Cl [compound 65]	217 µM
COc1nnc2n1-c1ccc(Cl)cc1C(c1ccccc1Cl)=NC2 [compound 56]	20.6 µM
COc1ccccc1C1NCc2nnc(C)n2-c2ccccc21 (stereo not drawn) [compound 99]	218 µM
Cc1nnc2n1-c1sc(Br)cc1C(c1ccccc1Cl)N(CCO)C2 (stereo not drawn) [compound 94]	11 µM
CCC1NC(c2ccccc2Cl)c2cc(Br)sc2-n2c(C)nnc21 (stereo not drawn) [compound 97]	< 100 µM
Cc1nnc2n1-c1sc(Br)cc1C(c1ccccc1Cl)N(C)C2 (stereo not drawn) [compound 95]	7.4 µM
Cc1nnc2n1-c1sc(Br)cc1C(c1ccccc1Br)NC2 (stereo not drawn) [compound 91]	< 5 µM
Cc1ccc2c(c1)C(c1ccccc1Cl)N(C)Cc1nnc(C)n1-2 (stereo not drawn) [compound 104]	81 µM
CCOC(=O)C=C(C)c1cc2c(s1)-n1c(C)nnc1CN=C2c1ccccc1Cl [compound 83]	< 50 µM
Cc1nnc2n1-c1cccc(Cl)c1C(c1ccccc1Cl)=NC2 [compound 64]	280 µM
CC(=O)c1cc2c(s1)-n1c(C)nnc1CN=C2c1ccccc1Cl [compound 68]	< 10 µM
CN(C)CCc1nnc2n1-c1sc(Br)cc1C(c1ccccc1Cl)N(C)C2 (stereo not drawn) [compound 96]	26 µM
Cc1ncc2n1-c1ccc(Cl)cc1C(c1ccccc1F)=NC2 [compound 31]	690 µM
Cc1nnc2n1-c1sc(CS(C)(=O)=O)cc1C(c1ccccc1Cl)=NC2 [compound 47]	< 10 µM
Cc1nnc2n1-c1sc(Br)cc1C(c1ccccc1Cl)=NC2 [compound 10]	0.5 µM
CCc1cc2c(s1)-n1c(C)nnc1CN=C2c1ccccc1Cl [compound 8]	< 5 µM

Compound	IC50
Cc1nnc2n1-c1sc(C[S+](C)[O-])cc1C(c1ccccc1Cl)=NC2 (stereo not drawn) [compound 46]	< 10 µM
Cc1ccc2c(c1)C(c1ccccc1Cl)=NCc1nnc(C)n1-2 [compound 6]	9.1 µM
Cc1nnc2n1-c1sccc1C(c1ccccc1Cl)=NC2 [compound 7]	22 µM
Clc1ccccc1C1=NCc2cncn2-c2sc(Br)cc21 [compound 53]	97.4 µM
Cc1nnc2n1-c1sc([N+](=O)[O-])cc1C(c1ccccc1Cl)=NC2 [compound 12]	2.6 µM
Cc1nnc2n1-c1ccsc1C(c1ccccc1)=NC2 [compound 23]	19.8 µM
CCOC(=O)c1ncn2c1CN=C(c1ccccc1Cl)c1cc(Br)sc1-2 [compound 52]	134 µM
Cc1nnc2n1-c1ccsc1C(c1ccccc1Cl)=NC2 [compound 24]	7.6 µM
Cc1ccc2c(c1)-n1c(C)nnc1CNC2c1ccccc1Cl (stereo not drawn) [compound 105]	277 µM
Cc1nnc2n1-c1sc3c(c1C(c1ccccc1Cl)=NC2)CCNC3 [compound 45]	< 10 µM
Cc1cc2c(cc1C)-n1c(C)nnc1CNC2c1ccccc1Cl (stereo not drawn) [compound 101]	342 µM
CCOC(=O)c1ccc2c(c1)-n1c(C)nnc1CN=C2c1ccccc1 [compound 79]	38 µM
COC(=O)c1ccc2c(c1)C(c1ccccc1)=NCc1ncc(C)n1-2 [compound 78]	8 µM
CCn1nc(C)c2c1-n1c(C)nnc1CN=C2c1ccccc1Cl [compound 27]	270 µM
Clc1ccc2c(c1)C(c1ccccc1Cl)=NCc1nnc(C3CC3)n1-2 [compound 63]	7 µM
NCc1nnc2n1-c1sc(Br)cc1C(c1ccccc1Cl)NC2 (stereo not drawn) [compound 93]	< 50 µM
Cc1nnc2n1-c1ccccc1C(c1ccccc1)=NC2	16 µM
Cc1nc2c(s1)C(c1ccccc1)=NCc1nncn1-2 [compound 26]	700 µM
Cc1csc2c1-n1c(C)nnc1CN=C2c1ccccc1 [compound 22]	> 100 µM
Cc1ccccc1C1NCc2nnc(C)n2-c2ccccc21 (stereo not drawn) [compound 98]	63 µM
Cc1nnc2n1-c1sc(Br)cc1C(c1ccccc1Cl)NC2 (stereo not drawn) [compound 89]	< 10 µM
Cc1nnc2n1-c1cc(F)ccc1C(c1ccccc1Cl)=NC2 [compound 72]	56 µM
Cc1ccc2c(c1)-n1c(C)nnc1CN=C2c1ccccc1Cl [compound 73]	243 µM
Cc1cc2c(cc1C)-n1c(C)cnc1CN=C2c1ccccc1Cl [compound 48]	528 µM
Cc1cnc2n1-c1sc(Br)cc1C(c1ccccc1Cl)=NC2 [compound 30]	< 10 µM

Same assay, conditions: table 3 (formula with R7), human thrombocyte-rich plasma, aggregation induced with PAF 5×10^-8 M, read-out: PAF-Antag. IC50

Compound	IC50
CCOC(=O)c1nc(C)n2c1CNC(c1ccccc1Cl)c1cc(Cl)ccc1-2 (stereo not drawn) [compound 103]	519 µM
